Measurements taken from PubChem BioAssay (NCI).
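1) Cells in 96-well plates. 2) Compound, 48 h, 5 concentrations. 3) Linear interpolation between surrounding doses. 4) Unreached endpoint = highest concentration. Abbreviation: GI50, concentration required for 50% inhibition of growth. Definition used: TGI = concentration required for complete inhibition of growth.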

Columns and labels:
Assay in all cases: inhibition of tumour cell growth, NCI panel, 48 h
SN12C renal = tested on: SN12C renal
786-0 renal = tested on: 786-0 renal
SF-268 CNS = tested on: SF-268 CNS
K-562 leukemia = tested on: K-562 leukemia
A498 renal = tested on: A498 renal
IGROV1 ovarian = tested on: IGROV1 ovarian
HCC-2998 colon = tested on: HCC-2998 colon
OVCAR-8 ovarian = tested on: OVCAR-8 ovarian
M14 melanoma = tested on: M14 melanoma
NCI-H522 lung = tested on: NCI-H522 lung

SMILES | TGI (SN12C renal) [µM] | TGI (786-0 renal) [µM] | TGI (SF-268 CNS) [µM] | TGI (K-562 leukemia) [µM] | TGI (A498 renal) [µM] | TGI (IGROV1 ovarian) [µM] | TGI (HCC-2998 colon) [µM] | TGI (OVCAR-8 ovarian) [µM] | TGI (M14 melanoma) [µM] | GI50 (SN12C renal) [µM] | GI50 (786-0 renal) [µM] | GI50 (K-562 leukemia) [µM] | GI50 (NCI-H522 lung) [µM] | TGI (NCI-H522 lung) [µM] | GI50 (IGROV1 ovarian) [µM] | GI50 (HCC-2998 colon) [µM] | GI50 (OVCAR-8 ovarian) [µM] | GI50 (M14 melanoma) [µM] | GI50 (SF-268 CNS) [µM] | GI50 (A498 renal) [µM]
CCC1C(=O)OCc2c1cc1n(c2=O)Cc2ccccc2-1 (configuration not stated) | > 100 | > 100 | > 100 | > 100 | > 100 | > 100 | > 100 | > 100 | > 100 |  |  |  |  |  |  |  |  |  |  | 
Cc1c(-c2ccnc(N)n2)c2c(n1-c1ccccc1)C(=O)c1ccccc1C2=O | 53.8 | > 100 |  | 25.5 |  | 39 | 46.5 | > 100 | > 100 | 14.7 | 25.6 | 3.78 | 13.2 | 37.2 | 4.86 | 19.7 | 17.2 | 46.8 |  | 
Cc1nc(=O)n2c(c1C(=O)Nc1ccc(Cl)cc1)NCCC2 | > 100 | > 100 | > 100 | > 100 |  | > 100 |  | > 100 | > 100 |  |  |  |  | > 100 |  |  |  |  |  | 
COc1ccc(C(=O)C(CN(C)C)c2ccccc2)cc1 (configuration not stated) | 12.1 | 3.01 | 4.86 | > 100 | 20.5 | 5.74 | 3.94 | 12.5 | 3.33 | 3.56 | 1.62 | 4.17 |  |  | 2.18 | 2.28 | 3.46 | 1.68 | 2.17 | 8.11
CC(C(=O)C(C)O[Si](c1ccccc1)(c1ccccc1)C(C)(C)C)=P(c1ccccc1)(c1ccccc1)c1ccccc1 (configuration not stated) | 13.5 | 15.4 |  | 12.3 | 16.1 | 13.9 | 12.3 | 14.2 | 14.7 |  |  |  |  |  |  |  |  |  |  | 
COc1cccc(C2N3CCCCC3[C@@H]3c4[nH]c5ccccc5c4CCN23)c1OC (some centres not stated) | 31 | 32.4 | 23.7 | 30.1 | 23.8 | 34.7 |  | 30.8 | 29.6 |  |  |  |  |  |  |  |  |  |  | 
Cc1ccc(/C=C2\CN(C(=O)CCN3CCC(=NO)CC3)C/C(=C\c3ccc(C)cc3)C2=O)cc1 |  | 3.42 | 4.7 |  | 2.96 |  | 3.18 |  |  |  | 1.68 |  |  |  |  | 1.57 |  |  | 1.92 | 1.48
COc1ccccc1NC(=O)NS(=O)(=O)c1ccccc1 | > 100 | > 100 | > 100 |  |  |  | > 100 | > 100 | > 100 |  |  |  |  | > 100 |  |  |  |  |  | 
Cc1cccc(Cc2cnc(NC(=O)/C=C/c3ccco3)s2)c1 | > 100 | > 100 | > 100 | > 100 | 3.93 | > 100 | > 100 | > 100 | > 100 | 0.073 | 0.0598 | 0.0347 |  |  | 0.0712 | 0.135 | 0.0535 | 0.031 | 0.181 | 0.199
O=C(O)c1ccccc1/C=C1/Nc2ccccc2C1=O | > 100 | > 100 | > 100 | > 100 | > 100 | > 100 | > 100 | > 100 | > 100 |  |  |  |  |  |  |  |  |  |  | 
CCOC(=O)CCC(NC(=O)c1ccc(Nc2nc3cc(N)cc(N)c3nc2-c2ccccc2)cc1)C(=O)OCC (configuration not stated) | 58.1 | > 60.9 | > 100 | > 100 |  | > 94.7 |  | > 100 | > 24.4 | 26.2 | > 42.3 | 42.5 | 27.9 | > 100 | 22.6 |  | 47.1 | 11.9 | 34.2 | 
CC(=O)[O-].CC(=O)[O-].CC(=O)[O-].CC(=O)[O-].CO.CO.CO.[Rh+2].[Rh+2].c1ccc(-c2ccccn2)nc1 | > 100 | > 100 | > 100 |  |  | > 100 | > 100 | > 100 | > 100 | > 100 | > 100 |  |  |  | > 100 | > 100 | > 100 | > 100 | > 100 | 
O=C(c1nc2ccccc2[nH]1)C1C(c2cccc([N+](=O)[O-])c2)C2CC3CCCCC3N2[C@@]12C(=O)Nc1cc(Cl)ccc12 (some centres not stated) | 3.62 | 4.52 | 5.43 | > 100 |  | 3.69 | 3.83 | 20.1 |  | 1.72 | 1.89 | 2.6 | 1.67 | 4.38 | 1.54 | 1.88 | 2.68 |  | 2.11 | 
CCOc1c(Cc2ccccc2)c(=O)n2c3ccccc3n3c(=O)n(C)c(=O)c1c23 | > 100 | > 100 | > 100 |  | > 100 | > 100 | > 100 | > 100 | > 100 |  |  |  |  |  |  |  |  |  |  | 
CC1CC(=O)CC[C@@H]1OCc1ccccc1 (some centres not stated) | > 100 | > 100 | > 100 | > 100 | > 100 | > 100 | > 100 | > 100 | > 100 |  |  |  |  |  |  |  |  |  |  | 
